Assay results from patent US11779600B2, “Methods of treating or preventing alzheimer's disease and associated conditions” (CEDARS-SINAI MEDICAL CENTER, priority 2016, dated 2023).

Test system: OPN
Assay: Quantitative IHC of cerebral OPN expression in ADtg mice
Format: in vivo, mouse
Description: ADtg mice (10 months old) received subcutaneous injections of GA [also known as Cop-1 and Copaxone®; 100 μg in phosphate-buffered saline (PBS)] or PBS alone (control group) twice a week for 1 week and then once a week for 8 weeks. For evaluation of innate immune infiltration to the brain by flow cytometry, 10-month-old ADtg mice received subcutaneous injections of GA ([…] in PBS) or PBS alone twice a week for 1 week and then once a week for 3 weeks. At the end of the study, all mice were anaesthetized and then perfused with ice-cold PBS with 0.5 mM EDTA, after which their organs were collected and analyzed or fixed in 2.5% paraformaldehyde (Sigma-Aldrich), and cryoprotected with 30% sucrose for further histological analysis. CD115^+ monocytes from mice donors were isolated as previously reported (Koronyo et al., Brain: a journal of neurology 2015,138:2399-2422). […] For microscopic analysis, we used a Carl Zeiss Axio Imager Z1 fluorescence microscope equipped with ApoTome (Carl Zeiss MicroImaging, Inc.). […] The number and area (μm^2) of OPN+ cells, Iba1^+CD45^hi cells, GFAP^+ cells, Thio-S^+ amyloid-βplaques and 4G8^+ amyloid-βplaques were determined by examining four to six coronal sections per mouse at 150-μm intervals over an area covering both the hippocampal and cortical (including entorhinal and cingulate cortex) regions. […]

glatiramer acetate [GA]
cerebral OPN expression in comparison to PBS controls (quantitative IHC, symptomatic ADtg mice, 2 months treatment (FIG. 11B)): 1.5 times | increase in total OPN expression per Aβ-plaque area (ratio of total OPN area to plaque area, total brain regions (FIG. 11D)): 2.6 fold
